Experimental data taken from ChEMBL document CHEMBL1144976, “Biological activities of alpha-mangostin derivatives against acidic sphingomyelinase” (Bioorg Med Chem Lett, 2003).

Columns and labels:
[1] = molecular target: T1, Sphingomyelin phosphodiesterase 2 (Homo sapiens, UniProt O60906); assay: Inhibitory activity against NSMase (neutral sphingomyelinase)
T1 sequence (O60906 whole entry): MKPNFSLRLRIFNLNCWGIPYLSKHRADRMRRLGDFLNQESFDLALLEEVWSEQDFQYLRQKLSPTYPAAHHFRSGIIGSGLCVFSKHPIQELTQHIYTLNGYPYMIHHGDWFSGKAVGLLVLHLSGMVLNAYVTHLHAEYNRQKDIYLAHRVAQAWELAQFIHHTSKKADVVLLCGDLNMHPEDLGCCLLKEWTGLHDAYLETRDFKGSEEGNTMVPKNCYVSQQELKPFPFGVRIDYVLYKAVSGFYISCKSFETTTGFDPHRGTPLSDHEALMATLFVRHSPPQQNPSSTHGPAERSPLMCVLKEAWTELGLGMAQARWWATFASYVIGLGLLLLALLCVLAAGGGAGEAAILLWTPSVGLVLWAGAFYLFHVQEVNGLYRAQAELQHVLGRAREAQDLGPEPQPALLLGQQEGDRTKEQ

[2] = molecular target: T2, Sphingomyelin phosphodiesterase (Homo sapiens, UniProt P17405); assay: Inhibitory activity against Acid sphingomyelinase
T2 sequence (P17405 whole entry): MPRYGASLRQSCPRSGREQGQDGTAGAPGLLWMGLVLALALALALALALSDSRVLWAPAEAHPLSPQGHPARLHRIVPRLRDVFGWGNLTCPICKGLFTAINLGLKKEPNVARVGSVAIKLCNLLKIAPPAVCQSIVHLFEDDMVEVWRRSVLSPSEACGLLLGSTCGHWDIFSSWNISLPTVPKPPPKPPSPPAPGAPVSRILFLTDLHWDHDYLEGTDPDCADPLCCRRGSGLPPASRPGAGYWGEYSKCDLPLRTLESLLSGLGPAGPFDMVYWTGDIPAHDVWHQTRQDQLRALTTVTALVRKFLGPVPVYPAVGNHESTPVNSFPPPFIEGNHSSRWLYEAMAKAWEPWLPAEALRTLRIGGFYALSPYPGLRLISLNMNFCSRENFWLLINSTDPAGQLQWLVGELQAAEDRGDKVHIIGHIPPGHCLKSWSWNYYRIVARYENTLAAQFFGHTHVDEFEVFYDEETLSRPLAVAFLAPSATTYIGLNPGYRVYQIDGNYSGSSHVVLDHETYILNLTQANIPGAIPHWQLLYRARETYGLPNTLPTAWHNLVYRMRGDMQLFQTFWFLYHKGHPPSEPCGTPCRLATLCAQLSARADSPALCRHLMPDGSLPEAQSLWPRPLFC

Row | IC50 [1] | IC50 [2] | SMILES
1 | > 292 µM | 101 µM | COc1cc2c(=O)c3c(O)c(CC=C(C)C)c(O)cc3oc2cc1O
2 | 201 µM | 66.6 µM | COc1cc(C(=O)c2c(O)cc(O)c(CC=C(C)C)c2O)c(O)cc1O
3 | 113 µM | 38.5 µM | COc1c(O)cc(O)c(C(=O)c2c(O)cc(O)c(CC=C(C)C)c2O)c1CC=C(C)C
4 | 26 µM | 15.3 µM | COc1c(O)cc2oc3cc(O)cc(O)c3c(=O)c2c1CC=C(C)C
5 | 28.3 µM | 14.7 µM | COc1c(O)cc(O)c(C(=O)c2c(O)cc(O)cc2O)c1CC=C(C)C
6 | 113 µM | 12.5 µM | COc1c(O)cc2oc3cc(O)c(CC=C(C)C)c(O)c3c(=O)c2c1CC=C(C)C [MANGOSTIN]
